Results as given in the supplement of paper PMC10307832.

How the values were obtained:
Assay in all cases: relative viability (nuclei count vs DMSO), 5 days (fraction); higher = more cells survive
AZD8055 + Linsitinib = compound: COc1ccc(-c2ccc3c(N4CCOC[C@@H]4C)nc(N4CCOC[C@@H]4C)nc3n2)cc1CO [AZD8055] + C[C@]1(O)C[C@@H](c2nc(-c3ccc4ccc(-c5ccccc5)nc4c3)c3c(N)nccn32)C1 [Linsitinib] (partner 1 µM)
Procedure, shortened: (§1)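 Lung cancer cell lines in 1536-well plates were dosed by pin tool the day after seeding, either with one drug alone or with a fixed anchor-drug dose plus five library-drug doses (not always all listed) in √10 steps. After 5 days, cells were fixed and their nuclei stained in one step (final 0.05% Triton X-100, 1% formaldehyde, 1 ug/ml Hoechst), then counted on 4× images. Relative viability is the nuclei count in treated wells divided by that in vehicle wells. Values are medians of duplicate plates.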

AZD8055 + Pemetrexed = compound: COc1ccc(-c2ccc3c(N4CCOC[C@@H]4C)nc(N4CCOC[C@@H]4C)nc3n2)cc1CO [AZD8055] + Nc1nc2[nH]cc(CCc3ccc(C(=O)N[C@@H](CCC(=O)O)C(=O)O)cc3)c2c(=O)[nH]1 [Pemetrexed] (partner 0.2 µM)
Procedure, shortened: as §1

AZD8055 + Vorinostat = compound: COc1ccc(-c2ccc3c(N4CCOC[C@@H]4C)nc(N4CCOC[C@@H]4C)nc3n2)cc1CO [AZD8055] + O=C(CCCCCCC(=O)Nc1ccccc1)NO [Vorinostat] (partner 1 µM)
Procedure, shortened: as §1

AZD8055 + Olaparib = compound: COc1ccc(-c2ccc3c(N4CCOC[C@@H]4C)nc(N4CCOC[C@@H]4C)nc3n2)cc1CO [AZD8055] + O=C(c1cc(Cc2n[nH]c(=O)c3ccccc23)ccc1F)N1CCN(C(=O)C2CC2)CC1 [Olaparib] (partner 8 µM)
Procedure, shortened: as §1

Cell Line | relative viability (AZD8055 + Linsitinib; first compound 0.01 µM) | relative viability (AZD8055 + Linsitinib; first compound 0.03162 µM) | relative viability (AZD8055 + Linsitinib; first compound 0.1 µM) | relative viability (AZD8055 + Linsitinib; first compound 0.3162 µM) | relative viability (AZD8055 + Linsitinib; first compound 1 µM) | relative viability (AZD8055 + Pemetrexed; first compound 0.01 µM) | relative viability (AZD8055 + Pemetrexed; first compound 0.03162 µM) | relative viability (AZD8055 + Pemetrexed; first compound 0.1 µM) | relative viability (AZD8055 + Pemetrexed; first compound 0.3162 µM) | relative viability (AZD8055 + Pemetrexed; first compound 1 µM) | relative viability (AZD8055 + Vorinostat; first compound 0.01 µM) | relative viability (AZD8055 + Vorinostat; first compound 0.03162 µM) | relative viability (AZD8055 + Vorinostat; first compound 0.1 µM) | relative viability (AZD8055 + Vorinostat; first compound 0.3162 µM) | relative viability (AZD8055 + Vorinostat; first compound 1 µM) | relative viability (AZD8055 + Olaparib; first compound 0.01 µM) | relative viability (AZD8055 + Olaparib; first compound 0.03162 µM) | relative viability (AZD8055 + Olaparib; first compound 0.1 µM) | relative viability (AZD8055 + Olaparib; first compound 0.3162 µM) | relative viability (AZD8055 + Olaparib; first compound 1 µM)
LCLC-103H | 1 | 0.929 | 0.723 | 0.467 | 0.481 | 0.499 | 0.438 | 0.54 | 0.49 | 0.392 | 0.825 | 0.765 | 0.619 | 0.445 | 0.437 | 0.824 | 0.634 | 0.631 | 0.47 | 0.396
LK-2 | 0.334 | 0.28 | 0.249 | 0.164 | 0.238 | 0.234 | 0.185 | 0.138 | 0.137 | 0.11 | 0.3 | 0.172 | 0.271 | 0.167 | 0.157 | 0.769 | 0.436 | 0.379 | 0.144 | 0.171
LOU-NH91 | 0.889 | 0.835 | 0.629 | 0.585 | 0.524 | 0.466 | 0.433 | 0.5 | 0.507 | 0.469 | 0.872 | 0.95 | 0.63 | 0.596 | 0.57 | 1.03 | 0.913 | 0.816 | 0.633 | 0.607
LU99A | 0.316 | 0.306 | 0.196 | 0.203 | 0.184 | 0.227 | 0.211 | 0.235 | 0.177 | 0.169 | 0.385 | 0.259 | 0.225 | 0.186 | 0.153 | 0.293 | 0.226 | 0.161 | 0.183 | 0.168
LXF-289 | 1 | 0.997 | 0.812 | 0.568 | 0.515 | 1.11 | 0.996 | 0.935 | 0.765 | 0.651 | 0.745 | 0.754 | 0.709 | 0.523 | 0.515 | 1.07 | 1.01 | 0.928 | 0.641 | 0.57
NCI-H23 | 0.521 | 0.484 | 0.294 | 0.244 | 0.259 | 0.503 | 0.635 | 0.542 | 0.326 | 0.354 | 0.44 | 0.457 | 0.449 | 0.235 | 0.251 | 0.248 | 0.213 | 0.279 | 0.166 | 0.184
